From US5036097A, “Phenylbutyl nitrone compositions and methods for prevention of gastric ulceration” (Oklahoma Medical Research Foundation, priority 1990, dated 1991)

Experiments:
[1] = test system: Xanthine dehydrogenase (XDH) and oxidase (XO); assay: gastric xanthine dehydrogenase and oxidase activity; format: in vivo, rat; conditions: whole stomach, piroxicam treated
Experimental: MEASUREMENT OF GASTRIC XANTHINE OXIDASE ACTIVITY. Xanthine dehydrogenase (XDH) and oxidase (XO) activities are measured in whole stomach from piroxicam-treated and vehicle-treated rats, using methods reported by Parks, et. al. […]. 254 (Gastrointest Liver Physiol 17): […]-[…] (1988). The artifactual conversion of XDH to XO is minimized by quickly removing stomachs from rats that were anesthetized with 50 mg/kg sodium pentobarbital and still breathing spontaneously. After gastrectomy, the rats are euthanized by cutting the abdominal aorta. Stomachs are quickly rinsed in an ice cold homogenizing buffer consisting of 50 mM potassium phosphate buffer, pH 7.0, containing 10 mM dithiothreitol (DTT), 1 mM phenylmethylsulfonyl fluoride (PMSF) and 0.1 mM EDTA. The stomach is then immediately immersed in liquid nitrogen and ground to a fine powder under liquid nitrogen using a mortar and pestle. About 0.5 g of frozen powder is added to 5 ml of homogenizing buffer and centrifuged 40,000 g for 30 min. The supernatant is decanted and microfuged for an additional 10 min. […] To increase reaction rates activity was measured at 30 rather than 25° C. […] XO is assayed in the absence in NAD+, while XDH+XO activity is measured in the presence of 500 μM NAD+. […] The extent of XDH conversion (% XO) is calculated from XO activity divided by XDH+XO activity.

prostaglandin synthesis = conditions: cited from earlier work

CN1C(C(=O)Nc2ccccn2)=C(O)c2ccccc2S1(=O)=O [piroxicam]
XO as % of total XDH+XO activity [1]: 45±3% | total XDH+XO activity ([1]; vehicle 31.6±2.45 mU/g): 30.5±1.6 mU/g | inhibition of prostaglandin synthesis (prostaglandin synthesis): relative weak reversible inhibitor
